Data taken from BigSolDB 2.1.

O=C1C=CC(=O)N1c1ccccc1Br
solubility (mole fraction)
Details | 278.15 K | 283.15 K | 288.15 K | 293.15 K | 298.15 K | 303.15 K | 308.15 K | 313.15 K | 318.15 K | 323.15 K
in DMF | 0.141 | 0.163 | 0.189 | 0.219 | 0.253 | 0.284 | 0.318 | 0.363 | 0.411 | 0.473
in DMSO | – | – | – | 0.156 | 0.177 | 0.21 | 0.238 | 0.288 | 0.327 | 0.387
in NMP | 0.117 | 0.131 | 0.154 | 0.179 | 0.212 | 0.245 | 0.284 | 0.324 | 0.372 | 0.424
in acetone | 0.0947 | 0.108 | 0.125 | 0.144 | 0.164 | 0.19 | 0.223 | 0.263 | 0.306 | 0.356
in acetonitrile | 0.0291 | 0.0347 | 0.0422 | 0.0521 | 0.0621 | 0.0723 | 0.0857 | 0.103 | 0.121 | 0.139
in cyclohexane | 0.00188 | 0.00224 | 0.00275 | 0.00344 | 0.00403 | 0.00487 | 0.00597 | 0.00744 | 0.00927 | 0.0117
in ethanol | 0.0113 | 0.0134 | 0.0163 | 0.0204 | 0.0245 | 0.0287 | 0.0341 | 0.0411 | 0.0481 | 0.0556
in ethylene glycol | 0.00377 | 0.00451 | 0.0055 | 0.00661 | 0.00819 | 0.00983 | 0.0115 | 0.0134 | 0.016 | 0.0184
in isobutanol | 0.00649 | 0.00819 | 0.00989 | 0.0117 | 0.0141 | 0.0173 | 0.0204 | 0.0234 | 0.0276 | 0.0328
in isopropanol | 0.00861 | 0.0104 | 0.0126 | 0.0157 | 0.019 | 0.0221 | 0.0261 | 0.0317 | 0.0375 | 0.0429
in methanol | 0.0134 | 0.0162 | 0.0199 | 0.0249 | 0.03 | 0.0356 | 0.0421 | 0.0514 | 0.0604 | 0.0702
in n-butanol | 0.00586 | 0.00717 | 0.00848 | 0.0106 | 0.0127 | 0.0147 | 0.0172 | 0.021 | 0.0247 | 0.0284
in n-propanol | 0.00717 | 0.00866 | 0.0106 | 0.0132 | 0.016 | 0.0187 | 0.0225 | 0.0271 | 0.0323 | 0.0372
in water | 0.000175 | 0.000217 | 0.000277 | 0.000348 | 0.000443 | 0.000543 | 0.000684 | 0.000812 | 0.000979 | 0.00119
